Target: T1, soluble guanylate cyclase (Homo sapiens, UniProt Q02153)
T1 construct: expressed in transfected cells
Assay: CHO cellular assay (cGMP production, Cisbio cGMP HTRF)
Type: cell-based
Conditions: CHO K1 cells overexpressing human GUCYA3/GUCYB3 (clone 8E10), 1 mM IBMX, 20 uM ODQ, 1 h room temperature, listed 0.5 nM means actual EC50 ≤0.5 nM (quantification limit)
Description: Chinese hamster ovary (CHO) cells overexpressing soluble guanylate cyclase were generated to test the effect of sGC activators in a cellular context. Human cDNAs for GUCYA3 (RefSeq: NM_000856.3) and GUCYB3 (RefSeq: NM_000857.1) were amplified by PCR from a HUVEC (Human Umbilical Vein Endothelial Cells) cDNA library and cloned into mammalian expression vectors. CHO K1 cells (ATCC CCL-61) were transfected using Lipofectamine 2000 following manufacturer's instructions and stably expressing clones were identified by antibiotic selection. CHO GUCY clone 8E10 was used for subsequent experiments.
Cells were seeded at a density of 3000 cells/well in white 384-well proxyplates (Perkin Elmer) and incubated overnight, then the medium was removed and cells were washed with assay buffer (HBSS, 0.1% BSA, 1 mM IBMX, 20 uM ODQ). sGC activators were serially diluted in DMSO, then diluted in assay buffer prior to adding to cells (10 ul/well, final DMSO concentration 0.5%). Cells were incubated with compounds for 1 h room temperature, then assayed for cGMP production using Cisbio cGMP HTRF kit (62GM2PEC) according to manufacturer's instructions.
The EC50s are calculated based on the amount of cGMP interpolated from the standard curve, using a 4-parameter sigmoidal dose-response.
Compounds of invention are active on sGC activation. Data on Table 1 collected using the assay of Biological Example 1. The minimum EC50 quantification limit of the assay is 0.5 nM, therefore any compound listed as having an EC50 value of 0.5 nM has a actual EC50 of ≤0.5 nM.

T1 sequence (Q02108 whole entry partner): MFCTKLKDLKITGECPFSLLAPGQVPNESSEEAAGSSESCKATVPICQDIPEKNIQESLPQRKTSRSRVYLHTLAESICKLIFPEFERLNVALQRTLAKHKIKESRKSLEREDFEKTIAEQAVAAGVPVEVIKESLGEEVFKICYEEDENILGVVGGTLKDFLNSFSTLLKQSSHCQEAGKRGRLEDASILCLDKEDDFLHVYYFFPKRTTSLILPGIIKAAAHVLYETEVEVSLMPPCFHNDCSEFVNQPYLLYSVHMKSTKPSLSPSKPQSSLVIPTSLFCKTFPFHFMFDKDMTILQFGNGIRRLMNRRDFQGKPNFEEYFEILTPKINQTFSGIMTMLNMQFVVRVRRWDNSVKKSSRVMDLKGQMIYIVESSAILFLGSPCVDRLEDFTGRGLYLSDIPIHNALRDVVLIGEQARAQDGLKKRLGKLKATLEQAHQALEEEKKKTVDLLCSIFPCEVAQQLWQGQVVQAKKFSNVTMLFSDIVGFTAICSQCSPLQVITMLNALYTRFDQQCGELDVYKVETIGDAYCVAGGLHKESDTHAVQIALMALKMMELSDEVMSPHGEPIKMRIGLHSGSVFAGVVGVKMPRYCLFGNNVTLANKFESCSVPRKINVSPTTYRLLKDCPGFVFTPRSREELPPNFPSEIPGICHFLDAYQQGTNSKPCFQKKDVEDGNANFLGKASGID
T1 sequence (Q02153 whole entry): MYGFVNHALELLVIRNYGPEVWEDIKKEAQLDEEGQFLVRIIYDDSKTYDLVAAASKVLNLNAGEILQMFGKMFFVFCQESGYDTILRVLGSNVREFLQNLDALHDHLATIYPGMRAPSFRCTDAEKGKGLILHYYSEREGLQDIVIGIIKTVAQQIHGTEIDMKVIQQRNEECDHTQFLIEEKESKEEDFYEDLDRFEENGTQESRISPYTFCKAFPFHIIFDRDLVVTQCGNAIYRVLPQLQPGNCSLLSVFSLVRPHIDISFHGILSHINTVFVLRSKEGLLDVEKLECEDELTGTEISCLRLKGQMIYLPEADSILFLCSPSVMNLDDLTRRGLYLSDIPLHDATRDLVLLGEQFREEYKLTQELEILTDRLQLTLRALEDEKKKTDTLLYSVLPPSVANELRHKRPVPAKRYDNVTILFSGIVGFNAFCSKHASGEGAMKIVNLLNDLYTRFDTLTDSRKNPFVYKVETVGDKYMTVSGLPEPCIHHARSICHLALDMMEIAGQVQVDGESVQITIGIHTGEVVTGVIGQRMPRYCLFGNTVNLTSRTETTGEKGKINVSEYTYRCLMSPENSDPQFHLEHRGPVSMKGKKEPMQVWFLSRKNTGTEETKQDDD

EC50 | SMILES
≤ 0.5 nM | CCc1cc(OCC2=C(c3cccc(-n4ncc(C(=O)O)c4CC)n3)CCCC2C)ccc1C1CCN(C(=O)C2CC2)CC1 (single isomer, unassigned; (+)) [Example 17a, (+)-1-(6-(2-((4-(1-(Cyclopropanecarbonyl)piperidin-4-yl)-3-ethylphenoxy)methyl)-3-methylcyclohex-1-en-1-yl)pyridin-2-yl)-5-ethyl-1H-pyrazole-4-carboxylic acid]
164 nM | Cc1cc(C2CCN(C(=O)[C@@H](C)O)CC2)ccc1OCC1=C(c2cccc(-n3ncc(C(=O)O)c3C(F)(F)F)n2)CCCC1 [Example 4-1, (R)-1-(6-(2-((4-(1-(2-hydroxypropanoyl)piperidin-4-yl)-2-methylphenoxy)methyl)cyclohex-1-en-1-yl)pyridin-2-yl)-5-(trifluoromethyl)-1H-pyrazole-4-carboxylic acid]
110 nM | Cc1cc(C2CCN(C(=O)CN)CC2)ccc1OCC1=C(c2cccc(-n3ncc(C(=O)O)c3C(F)(F)F)n2)CCCC1 [Example 11, 1-(6-(2-((4-(1-(2-Aminoacetyl)piperidin-4-yl)-2-methylphenoxy)methyl)cyclohex-1-en-1-yl)pyridin-2-yl)-5-(trifluoromethyl)-1H-pyrazole-4-carboxylic acid]
5.5 nM | CCc1cc(OCC2=C(c3cccc(-n4ncc(C(=O)O)c4C(F)(F)F)n3)CCC2C)ccc1C1CCN(C(=O)C2CC2)CC1 (single isomer, unassigned; (-)) [Example 22(b) (−), (−)-1-(6-(2-((4-(1-(cyclopropanecarbonyl)piperidin-4-yl)-3-ethylphenoxy)methyl)-3-methylcyclopent-1-en-1-yl)pyridin-2-yl)-5-(trifluoromethyl)-1H-pyrazole-4-carboxylic acid]
2.4 nM | Cc1cc(C2CCN(C(=O)C3CC3)CC2)ccc1NCC1=C(c2cccc(-n3ncc(C(=O)O)c3C(F)(F)F)n2)CCCC1 [Example 27-1, 1-(6-(2-(((4-(1-(Cyclopropanecarbonyl)piperidin-4-yl)-2-methylphenyl)amino)methyl)cyclohex-1-en-1-yl)pyridin-2-yl)-5-(trifluoromethyl)-1H-pyrazole-4-carboxylic acid]
≤ 0.5 nM | CCc1cc(OCC2=C(c3cccc(-n4ncc(C(=O)O)c4C(F)F)n3)CCCC2C)ccc1C1CCN(C(=O)C2CC2)CC1 (single isomer, unassigned; (+)) [Example 20(b) (+), (+)-1-(6-(2-((4-(1-(cyclopropanecarbonyl)piperidin-4-yl)-3-ethylphenoxy)methyl)-3-methylcyclohex-1-en-1-yl)pyridin-2-yl)-5-(difluoromethyl)-1H-pyrazole-4-carboxylic acid]
1 nM | COC(=O)N1CCC(c2ccc(OCC3=C(c4cccc(-n5ncc(C(=O)O)c5C(F)(F)F)n4)CCCC3)c(C)c2)CC1 [Example 2-2, 1-(6-(2-((4-(1-(methoxycarbonyl)piperidin-4-yl)-2-methylphenoxy)methyl)cyclohex-1-en-1-yl)pyridin-2-yl)-5-(trifluoromethyl)-1H-pyrazole-4-carboxylic acid]
2.4 nM | Cc1cc(C2CCN(C(=O)C3CC3)CC2)ccc1OCC1=C(c2cccc(-n3ncc(C(=O)O)c3C(F)(F)F)n2)CCC1 [Example 21, 1-(6-(2-((4-(1-(Cyclopropanecarbonyl)piperidin-4-yl)-2-methylphenoxy)methyl)cyclopent-1-en-1-yl)pyridin-2-yl)-5-(trifluoromethyl)-1H-pyrazole-4-carboxylic acid]
≤ 0.5 nM | CCc1cc(OCC2=C(c3cccc(-n4ncc(C(=O)O)c4C)n3)CCCC2C)ccc1C1CCN(C(=O)[C@H](C)O)CC1 (single isomer, unassigned; diastereomer-1) [Example 19a]
1 nM | CCc1cc(OCC2=C(c3cccc(-n4ncc(C(=O)O)c4C(F)(F)F)n3)CCCC2C)ccc1C1CCN(C(=O)C2CC2)CC1 (single isomer, unassigned; (+)) [Example 13a, (+)-1-(6-(2-((4-(1-(Cyclopropanecarbonyl)piperidin-4-yl)-3-ethylphenoxy)methyl)-3-methylcyclohex-1-en-1-yl)pyridin-2-yl)-5-(trifluoromethyl)-1H-pyrazole-4-carboxylic acid]
34 nM | O=C(O)c1cnn(-c2cccc(C3=C(COc4ccc5c(c4)CCN(Cc4ccccn4)C5)CCCC3)n2)c1C(F)(F)F [Example 8-2, 1-(6-(2-(((2-(pyridin-2-ylmethyl)-1,2,3,4-tetrahydroisoquinolin-6-yl)oxy)methyl)cyclohex-1-en-1-yl)pyridin-2-yl)-5-(trifluoromethyl)-1H-pyrazole-4-carboxylic acid]
6.3 nM | O=C(O)c1cnn(-c2cccc(C3=C(COc4ccc(C5CCN(C(=O)C6CC6)CC5)cc4)CCCC3)n2)c1C(F)(F)F [Example 2-6, 1-(6-(2-((4-(1-(cyclopropanecarbonyl)piperidin-4-yl)phenoxy)methyl)cyclohex-1-en-1-yl)pyridin-2-yl)-5-(trifluoromethyl)-1H-pyrazole-4-carboxylic acid]
1 nM | CCc1cc(OCC2=C(c3cccc(-n4ncc(C(=O)O)c4C(F)(F)F)n3)CCCC2)ccc1C1CCN(C(=O)C2CC2)CC1 [Example 7, 1-(6-(2-((4-(1-(Cyclopropanecarbonyl)piperidin-4-yl)-3-ethylphenoxy)methyl)cyclohex-1-en-1-yl)pyridin-2-yl)-5-(trifluoromethyl)-1H-pyrazole-4-carboxylic acid]
≤ 0.5 nM | Cc1cc(C2CCN(C(=O)C3CC3)CC2)ccc1OCC1=C(c2cccc(-n3ncc(C(=O)O)c3C(F)(F)F)n2)CC(C)CC1 (single isomer, unassigned; (-)) [Example 12 (−), (−)-1-(6-(2-((4-(1-(cyclopropanecarbonyl)piperidin-4-yl)-2-methylphenoxy)methyl)-5-methylcyclohex-1-en-1-yl)pyridin-2-yl)-5-(trifluoromethyl)-1H-pyrazole-4-carboxylic acid]
19 nM | Cc1cc(C2CCN(C(=O)CO)CC2)ccc1OCC1=C(c2cccc(-n3ncc(C(=O)O)c3C(F)(F)F)n2)CCC1 [Example 24-1, 1-(6-(2-((4-(1-(2-hydroxyacetyl)piperidin-4-yl)-2-methylphenoxy)methyl)cyclopent-1-en-1-yl)pyridin-2-yl)-5-(trifluoromethyl)-1H-pyrazole-4-carboxylic acid]
374 nM | Cc1cc(C2CCN(CC3CC3)CC2)ccc1OCC1=C(c2cccc(-n3ncc(C(=O)O)c3C(F)(F)F)n2)CCCC1 [Example 6-3, 1-(6-(2-((4-(1-(Cyclopropylmethyl)piperidin-4-yl)-2-methylphenoxy)methyl)cyclohex-1-en-1-yl)pyridin-2-yl)-5-(trifluoromethyl)-1H-pyrazole-4-carboxylic acid]
≤ 0.5 nM | CCS(=O)(=O)N1CCC(c2ccc(OCC3=C(c4cccc(-n5ncc(C(=O)O)c5C(F)(F)F)n4)CCCC3)c(C)c2)CC1 [Example 2-8, 1-(6-(2-((4-(1-(ethylsulfonyl)piperidin-4-yl)-2-methylphenoxy)methyl)cyclohex-1-en-1-yl)pyridin-2-yl)-5-(trifluoromethyl)-1H-pyrazole-4-carboxylic acid]
1 nM | Cc1cc(C2CCN(S(=O)(=O)C3CC3)CC2)ccc1OCC1=C(c2cccc(-n3ncc(C(=O)O)c3C(F)(F)F)n2)CCCC1 [Example 2-9, 1-(6-(2-((4-(1-(cyclopropylsulfonyl)piperidin-4-yl)-2-methylphenoxy)methyl)cyclohex-1-en-1-yl)pyridin-2-yl)-5-(trifluoromethyl)-1H-pyrazole-4-carboxylic acid]

— US9957254B2, “Cyclohexen-1-yl-pyridin-2-yl-1h-pyrazole-4-carboxylic acid derivatives and the use thereof as soluble guanylate cyclase activators” (Novartis AG, priority 2014, dated 2018)
